Measurements taken from ChEMBL document CHEMBL3988181, “GlaxoSmithKline Published Kinase Inhibitor Set 2 Onchocerca lienalis Screening Data”.

assay: GSK PKIS2: Screen against O. lienalis microfilariae, single point, at 3.1uM to assess reduction in motility. Compounds were also tested for cytotoxicity against Rhesus Monkey LLCMK2 cells.; assay type: functional, Onchocerca lienalis, LLC-MK2; conditions: CELL_LINE LLCMK2; CELL_SUPPLIER ECACC; CONC 3.1 uM; ORGANISM_SUPPLIER Extracted from peri-umbilical skin obtained from naturally infected cattle in the UK; temperature 37 degree C

SMILES | MOTILITY REDUCTION/CYTOTOXICITY [%]
O=C(Nc1[nH]nc2cc(-c3cccc(F)c3F)ccc12)C1CC1 | 0
CSc1nccc(-c2c(-c3ccc(F)cc3)ncn2CCCN2CCOCC2)n1 | 33.4
C[C@@H](Oc1cc(-n2cnc3cc(-c4ccncc4)ccc32)sc1C(N)=O)c1ccccc1Cl | 0
Fc1ccc(-c2ncn(CCCN3CCOCC3)c2-c2cccnc2)cc1 | 0
CSc1ccc(-c2nc3n(c2-c2ccncc2)CCC3)cc1 | 0
COc1nccc(-c2c(-c3ccc(F)cc3)ncn2CCCN2CCOCC2)n1 | 0
Oc1ccc2ncnc(Nc3ccc(OCc4ccccc4)cc3)c2c1 | 100
O=C1NC(=O)C(c2ccc(Cl)cc2)=C1Nc1ccc(O)c(Cl)c1 | 33.4
COc1ccccc1C1=C(Nc2ccc(O)c(Cl)c2)C(=O)NC1=O | 0
CN1C(=O)C(Nc2ccccc2)=C(c2ccccc2)C1=O | 13.4
O=C1NC(=O)C(c2ccc(Cl)cc2)=C1Nc1ccccc1 | 33.4
CNc1ncnc2[nH]ncc12 | 0
CC(=O)N1CCN(c2ccc(Nc3nccc(-c4sc(C(C)C)nc4-c4cccc(NS(=O)(=O)c5cccc(Cl)c5)c4)n3)cn2)CC1 | 0
Cc1ccc(NC(=O)Nc2cc(C(C)(C)C)nn2-c2ccccc2)cc1 | 0
Clc1ccc(-c2nn3ncccc3c2-c2ccnc(Nc3ccc4c(c3)OCCO4)n2)cc1 | 0
Cc1ccc2c(-c3ccnc(Nc4ccc(C(F)(F)F)cc4)n3)cnn2n1 | 0
FC(F)(F)c1cc(Nc2nccc(-c3c(-c4ccc(Cl)cc4)nn4ncccc34)n2)ccc1Cl | 20
Cc1cccc2c(-c3ccncn3)c(-c3ccc(F)cc3)nn12 | 13.4
CN1CCN(CCCNc2nccc(-c3c(-c4ccc(F)cc4)nn4cc(C(F)(F)F)ccc34)n2)CC1 | 0
O=c1cc(N2CCOCC2)nc2n(Cc3cccc4ccccc34)ccn12 | 0
O=c1cc(N2CCOCC2)nc2n(Cc3cccc(Cl)c3)ccn12 | 0
Cc1c(Cn2c3ccccc3n3c(=O)cc(N4CCOCC4)nc23)cccc1C(F)(F)F | 0
COc1ccc(-c2oc3ncnc(N)c3c2-c2ccc(OC)cc2)cc1 | 20

SMILES | MOTILITY REDUCTION/CYTOTOXICITY [%]
Cc1ccc(NC(=O)c2cccc(N3CCCCC3)c2)cc1-c1ccc(C(=O)NCC2CC2)cc1 | 20
Cc1c(Cn2c(C)nn3c(=O)cc(N4CCOC(C)C4)nc23)cccc1C(F)(F)F (configuration not stated) | 0
c1ccc(-c2n[nH]cc2-c2ccnc(-c3ccc(CN4CCOCC4)cc3)c2)nc1 | 40
Cn1cc(-c2ccc3c(c2)CCN3C(=O)Cc2cccc(C(F)(F)F)c2)c2c(N)ncnc21 | 0
Cn1cc(-c2ccc3c(c2)CCN3C(=O)Cc2cc(F)cc(C(F)(F)F)c2)c2c(N)ncnc21 | 0
O=C(Nc1ccc(Oc2ccc3[nH]c(NC(=O)c4ccco4)nc3c2)cc1)Nc1cc(C(F)(F)F)ccc1F | 0
O=C(Nc1n[nH]c2nc(-c3cccs3)c(Br)cc12)C1CC1 | 0
Nc1n[nH]c2ncc(-c3ccccc3)cc12 | 0
O=C(Nc1n[nH]c2nc(-c3ccccc3)c(Cl)cc12)C1CC1 | 0
Cc1nnc(-c2ccc(C)c(-c3ccc(C(=O)O)cc3)c2)o1 | 33.4
O=C(Nc1[nH]nc2cc(-c3ccccc3F)ccc12)C1CC1 | 0
CCn1cnc2c(NCc3ccccc3)ncnc21 | 0
COc1cccc(-c2[nH]c(-c3ccccc3)nc2-c2ccncc2)c1 | 33.4
CC(C)(C)n1cnc2c(N)ncnc21 | 0
NS(=O)(=O)c1cccc(Nc2cc(-c3ccc(F)cc3)n[nH]2)c1 | 33.4
CNc1nccc(-c2c(-c3ccc(F)cc3)ncn2C2CCN(C)CC2)n1 | 13.4
FC(F)(F)c1ccc(-c2ncn(CCCN3CCOCC3)c2-c2ccncc2)cc1 | 40
O=C1NC(=O)C(c2ccc(Cl)cc2)=C1Nc1cccc(C(=O)O)c1 | 0
CN(C1=C(c2ccccc2)C(=O)NC1=O)c1ccccc1 | 0
CN(c1ccc(NC(=O)N2CCN(CCCN3CCOCC3)CC2)cc1)c1ccnc(Nc2ccc(CS(C)(=O)=O)cc2)n1 | 0
CCn1c(-c2nonc2N)nc2cncc(Br)c21 | 33.4
Oc1cc(-c2nc(-c3ccccc3)[nH]c2-c2ccncc2)ccc1Cl | 0
O=C(c1ccc(-c2cc(-c3c[nH]nc3-c3ccccn3)ccn2)cc1)N1CCCC1 | 0

SMILES | MOTILITY REDUCTION/CYTOTOXICITY [%]
CN1CCC(n2cnc(-c3ccc(F)cc3)c2-c2ccnc(NC3CCNCC3)n2)CC1 | 0
CS(=O)(=O)c1ccc(-c2nc3n(c2-c2ccncc2)CCC3)cc1 | 0
CCn1c(-c2ccncc2)nc2cnccc21 | 0
COc1ccc(-c2nc3n(c2-c2ccncc2)CCC3)cc1 | 0
Cc1nn2c(=O)cc(N3CCO[C@H](C)C3)nc2n1Cc1cccc(Cl)c1Cl | 33.4
O=C(Nc1n[nH]c2nc(-c3ccc(O)cc3)ccc12)C1CC1 | 33.4
COc1cccc(-c2ccc3c(NC(=O)C4CC4)n[nH]c3n2)c1 | 20
CCCC(=O)Nc1n[nH]c2ncccc12 | 20
O=C(Nc1n[nH]c2nc(-c3cccc(O)c3)ccc12)C1CC1 | 0
Cc1cc(C)cc(Oc2nccc(-c3c(-c4ccc(F)cc4)ncn3C3CCNCC3)n2)c1 | 20
O=C(c1ccc(-c2cc(-c3c[nH]nc3-c3ccccn3)ccn2)cc1)N1CCOCC1 | 0
Cc1ccc(NC(=O)c2ccnc(N3CCN(C)CC3)c2)cc1-c1ccc(C(=O)NCC2CC2)cc1 | 0
c1ccc(-c2ccnc3[nH]ccc23)cc1 | 33.4
NCCCC(NC(=O)c1cc(Br)c(-c2ccnc3[nH]ccc23)s1)c1ccccc1 (configuration not stated) | 0
O=c1[nH]ccc2nc(N[C@@H]3CCCNC3)nc(Nc3ccc(S(=O)(=O)N4CCOCC4)cc3)c12 | 46.7
N#CCc1ccc(Nc2nccc(Nc3ccc(Oc4ccccc4)cc3)n2)cc1 | 20
O=C(Nc1n[nH]c2nc(-c3ccco3)c(Br)cc12)c1ccc(CN2CCCC2)cc1 | 0
CC(C)(C)c1ccc2nccc(Nc3cccc(O)c3)c2c1 | 100
Fc1cc(Cl)ccc1Nc1ccnc2cc(-c3ccc(CN4CCOCC4)o3)ccc12 | 0
COc1ccc(Nc2nccc(N3CCC(NC(=O)C(C)c4ccc(Cl)cc4)C3)n2)cc1 (configuration not stated) | 33.4
CN(C)S(=O)(=O)c1cc(-c2ccc3nccc(-c4cccc(S(N)(=O)=O)c4)c3c2)cnc1N | 60
Cc1ccc(NC(=O)c2cccc(C#N)c2)cc1-c1ccc(C(=O)Nc2ccncc2)cc1 | 73.4
NC(=O)c1cccc(Nc2nccc(Nc3ccc(Oc4c(Cl)cccc4Cl)c(Cl)c3)n2)c1 | 0

SMILES | MOTILITY REDUCTION/CYTOTOXICITY [%]
NS(=O)(=O)c1cccc(-c2ccc3nccc(-c4cccc(S(N)(=O)=O)c4)c3c2)c1 | 0
COc1ccc(Nc2ncc(C#N)c(Nc3ccccc3C(N)=O)n2)cc1N1CCN(C)CC1 | 13.4
COc1cc2nccc(Nc3ccc(OCc4ccc(NC(C)=O)cc4)cc3)c2cc1OC | 0
COc1ccc(Nc2nccc(N3CCC(NS(=O)(=O)c4ccc(NC(C)=O)cc4)C3)n2)cc1 (configuration not stated) | 33.4
CC(C)c1ccc(O)cc1Nc1ccnc2ccc(C(F)(F)F)cc12 | 33.4
Cc1ccc(-c2nc(Nc3ccncc3)c3ccccc3n2)s1 | 0
CN(C)CCOc1ccc(-c2cc(-c3ccc(Cl)c(O)c3)c(-c3ccncc3)[nH]2)cc1 | 0
Cc1cc(Nc2nc(-c3cccc(C)n3)nc3ccccc23)ccn1 | 0
Cc1cccc(-c2nc(Nc3ccc4nn[nH]c4c3)c3ccccc3n2)n1 | 20
Cc1cccc(-c2nc(Nc3ccncc3)c3ccccc3n2)n1 | 0
O=C(Nc1cccc(-c2nn3ccccc3c2-c2ccnc(Nc3cccc(F)c3)n2)c1)c1c(F)ccc(F)c1Cl | 0
O=C(Nc1cccc(-c2nn3ncccc3c2-c2ccnc(Nc3cccnc3)n2)c1)c1c(F)cccc1F | 0
O=C(Nc1cccc(-c2nn3ccccc3c2-c2ccnc(Nc3cccc(C(F)(F)F)c3)n2)c1)c1c(F)cccc1F | 26.7
CN(c1ccc2c(c1)nc(NCc1ccccc1)n2C)c1ccnc(Nc2ccc(CS(C)(=O)=O)cc2)n1 | 0
COc1cccc(CNC(=O)NC2CCN(c3ccnc(Nc4ccc(F)cc4)n3)C2)c1 (configuration not stated) | 33.4
COc1ccc(Nc2nccc(NCCNC(=O)Nc3cc(C)ccc3C)n2)cc1 | 33.4
COc1cc(Nc2nccc(N3CCC(NC(=O)Nc4cc(C)ccc4C)C3)n2)cc(OC)c1OC (configuration not stated) | 0
Cc1occc1-c1nc(N)c(OC[C@@H](N)Cc2c[nH]c3ccccc23)cc1-c1cc2c(C)n[nH]c2cn1 | 0
Fc1ccc(-c2nc[nH]c2-c2ccncc2)cc1 | 0
Cn1cnc2c(N)ncnc21 | 0
Nc1nc(N)c2[nH]c(-c3ccccc3)nc2n1 | 20
CC(C)N1CCC(n2cnc(-c3ccc(F)cc3)c2-c2ccnc(N)n2)CC1 | 0
Nc1nccc(-c2c(-c3ccc(F)cc3)ncn2C2CCN(CC(F)(F)F)CC2)n1 | 0
